# Patent US20190048052A1, “ANTI-MICROBIAL PEPTIDES AND COATINGS” (Board of Regents of the University of Nebraska, priority 2016, published 2019)
# Residues, ends and D or L forms follow the SMILES beside them.
# Test system: S. aureus USA300
# Assay: Confocal microscopy of preformed biofilms, LIVE/DEAD staining
# Format: cell-based, Staphylococcus aureus
# Conditions: 25 μM
# Method: S. aureus USA300 (10^5 CFU/mL) was made from exponentially growing bacteria. 1800 μL was added to the chamber of cuvettes (borosilicate cover glass systems), and was incubated for 37° C., 24 hours for biofilm formation. Media was then pipetted out and chambers were washed with 1×PBS to remove non-adhered cells. To disrupt the preformed biofilms, 200 μL of 10× stocks of the peptide was added followed by 1800 μL of TSB. Control cuvettes contained water instead of peptide. The cuvettes were again incubated for another 24 hours at 37° C. Subsequently, the supernatant was pipetted out and the chambers were washed with 1×PBS. For evaluation under confocal microscope the biofilms were stained with […] of LIVE/DEAD® kit (Invitrogen Molecular Probes) according to the manufacturer's instructions. The samples were examined with a confocal laser scanning microscope (Zeiss 710) and the data processed using Zen 2010 software.
structure (smiles),measurement,value
"CC[C@H](C)[C@H](NC(=O)[C@H](CCCNC(=N)N)NC(=O)[C@H](CCCNC(=N)N)NC(=O)[C@H](CC(C)C)NC(=O)[C@H](Cc1c[nH]c2ccccc12)NC(=O)[C@H](Cc1c[nH]c2ccccc12)NC(=O)[C@@H](N)Cc1c[nH]c2ccccc12)C(=O)N[C@@H](Cc1c[nH]c2ccccc12)C(N)=O [TetraF2W-RR, WWWLRRIW] (H-WWWLRRIW-NH2; N-terminus assumed)",killing in 24 hour preformed biofilms (LIVE/DEAD confocal),capable of killing S. aureus USA300 in 24 hour biofilms
